Literature values in patent US20170119742A1, “MEDICAMENT FOR PREVENTING AND/OR TREATING STRESS DISEASES” (ONO PHARMACEUTICAL CO., LTD., priority 2014, published 2017).

Molecular target: brain NK1 receptors (Homo sapiens, UniProt P25103)
Conditions: Non-Patent Document 5; cited from earlier work

Chain of brain NK1 receptors (P25103 whole entry): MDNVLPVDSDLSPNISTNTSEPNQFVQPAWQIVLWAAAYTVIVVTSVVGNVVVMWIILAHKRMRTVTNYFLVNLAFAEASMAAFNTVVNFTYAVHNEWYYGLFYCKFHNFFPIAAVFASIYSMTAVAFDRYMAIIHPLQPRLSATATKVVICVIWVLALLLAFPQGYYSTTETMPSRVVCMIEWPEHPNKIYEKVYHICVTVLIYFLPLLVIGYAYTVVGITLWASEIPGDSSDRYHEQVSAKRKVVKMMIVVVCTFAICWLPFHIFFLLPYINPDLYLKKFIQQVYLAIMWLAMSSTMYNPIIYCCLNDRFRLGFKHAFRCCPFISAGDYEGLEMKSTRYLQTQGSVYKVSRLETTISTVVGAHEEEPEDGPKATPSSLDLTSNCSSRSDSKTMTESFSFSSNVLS

## C[C@@H](O[C@H]1OCCN(Cc2n[nH]c(=O)[nH]2)[C@H]1c1ccc(F)cc1)c1cc(C(F)(F)F)cc(C(F)(F)F)c1 [aprepitant]
  brain NK1 receptor occupancy necessary for expressing the efficacy: ≥ 90%
  plasma concentration at 90% or more brain NK1 receptor occupancy: ≥ 100 ng/mL
